Here are results for 1 molecule from patent publication EP3120851A1, “4-AMINO-6-(2,6-DICHLOROPHENYL)-8-METHYL-2-(PHENYLAMINO)-PYRIDO[2,3-D]PYRIMIDIN-7(8H)-ONE FOR TREATMENT OF SOLID CANCERS” (Pangaea Biotech S.L., priority 2015, dated 2017).

pIC50: −log10 of the molar value. Like-named read-outs stand apart in the source and are kept apart here.

The term pIC50 denotes −log10 of the IC50, conventionally taken in molar units.

For one test, the system named is HCC78 cells. Briefly: MTT cell viability assay, combinations (Chou-Talalay method). Format: cell-based. To be noted: Homo sapiens. The protocol: (§1) The combinations comprising the compound of formula (1) were tested using an MTT proliferation assay in a panel of tumor cell lines of different origins. All culture materials were obtained from the sources described in Example 2. In the Chou-Talalay method, which is the standard, universally known methodology to determine drug interactions, the two drugs under study are maintained at a fixed ratio of IC50 single agent (drug 1):IC50 single agent (drug 2) while the concentration of total amount of drugs in the combination is varied and the 20% (IC20), 50% (IC50) and 80% (IC80) of growth inhibition of the combination is determined.
(§2) In the activity assays on cell lines the following terms are used: • IC50: Drug concentration at which 50% growth inhibition is achieved. • TKI IC50: The IC50 of the tyrosine kinase inhibitor as single agent. • Compound (1) IC50: The IC50 of compound (1) as single agent. • CI@IC20: The combination index of the combination consisting of drug 1 and drug 2 at a weight ratio equal to IC50 of drug 1:IC50 of drug 2 wherein said combination is used at a total amount that achieves 20% of growth inhibition. • CI@IC50: The combination index of the combination consisting of drug 1 and drug 2 at a weight ratio equal to IC50 of drug 1:IC50 of drug 2, wherein said combination is used at a total amount that achieves 50% of growth inhibition. • CI@IC80: The combination index of the combination consisting of drug 1 and drug 2 at a weight ratio equal to IC50 of drug 1:IC50 of drug 2, wherein said combination is used at a total amount that achieves 80% of growth inhibition. • Combination TKI IC50: The combination index at a tyrosine kinase inhibitor concentration that corresponds to the IC50 (single agent). • The combination index (CI) concept was introduced by Chou T.C. and Talalay P.(Chou TC, Talalay P. Adv Enzyme Regul 1984;22:27-55). The derived combination index equation for two drugs is (D = dosage or concentration): CI = ((D)1)/((Dx)1) + ((D)2)/((Dx)2) [formula] where (Dx)1 is the concentration of drug 1 "alone" that inhibits growth at a x% (i.e. (D50)1 is the concentration of drug 1 "alone" that inhibits growth at a 50%), (Dx)2 is the concentration of drug 2 "alone" that inhibits growth at a x%, (D)1 and (D)2 refer to the concentration of drug 1 and drug 2, respectively, in the combination, wherein the combination inhibits growth at the same x%. The CI Value quantitatively defines synergism (CI<1) (in particular, CI values of CI<0.7 indicates strong synergism, 0.7<CI<0.85 indicates moderate synergism, 0.85<CI<1 indicates slight synergism), additive effect (CI=1) and antagonism (CI>1). Based on the above equation, a plot of CI values at different effect levels (fa's) can be determined. Entering a series of "dose" ((D1), (D2), ((Dx)1 and (Dx)2) and % of growth inhibition (%x or effect (fa))" into an excel sheet for each drug alone and their combinations, the CI values at different x% (or fa levels) are obtained using the above equation. This plot is also called the Fa-CI plot or the Chou-Talalay plot.
(§3) Cell viability in response to combination treatment was assessed by the Thiazolyl Blue Tetrazolium Bromide (MTT) (Sigma, St Louis, MO) assay. Cells from each cell line were seeded at 2000 to 10000 per well in 96-well plates. […] Twenty-four hours after seeding, cells were exposed to compound (1), commercial drug or combinations thereof for 72 h. In the Chou-Talalay method, which is the standard, universally known methodology to determine drug interactions, the two drugs under study are maintained at a fixed ratio IC50 single agent (drug 1):IC50 single agent (drug 2).
(§4) After treatment, cells were incubated with medium containing MTT (0.75 mg/mL in medium) for 1-2 h at 37°C. Culture medium with MTT was removed and formazan crystals reabsorbed in 100 µL DMSO (Sigma, St. Louis, MO). Cell viability was determined by measuring the absorbance at 492 nm, using a microplate reader (BioWhittaker, Walkersville, MD).
On the technique in general: Formazan colour is commonly taken as a measure of viable cells.

Another test deals with H2228 Cells. Described as above. It counts as cell-based. The note with it: Homo sapiens, NCI-H2228. The protocol:
as §1, §2, §3, §4

The next test relates to H3122 Cells. The test is described as above. To be noted: Homo sapiens. It counts as cell-based. The protocol: as §1, §2, §3, §4
For another test, the system named is UACC903. The experiment in a line: MTT proliferation assay, single agent. To be noted: Homo sapiens, UACC-903, Melanoma, BRAF V600E, 72 h, mean of several independent experiments. It counts as cell-based.
Test [1] relates to mantle cell lymphoma (MCL) cell lines. To be noted: Eur. J. Med. Chem., 2014, 86, 664-675; cited from earlier work.

As for `Cn1c(=O)c(-c2c(Cl)cccc2Cl)cc2c(N)nc(Nc3ccccc3)nc21` [Compound (1), 4-amino-6-(2,6-dichlorophenyl)-8-methyl-2-(phenylamino)-pyrido[2,3-d]pyrimidin-7(8H)-one], the pIC50 in the test on HCC78 cells (HCC78, 72 h, HCC78 cells, compound (1) as single agent, 72 h, read-out: Compound (1) IC50) is 6.10; in the test on HCC78 cells (HCC78, HCC78 cells, compound (1) in combination with Crizotinib, read-out: Combination Compound (1) IC50), 6.37; in the test on HCC78 cells (HCC78, HCC78 cells, compound (1) in combination with Foretinib, read-out: Combination Compound (1) IC50), 6.68; in the test on H2228 Cells (H2228 cells, compound (1) as single agent, 72 h, read-out: Compound (1) IC50) it was 6.09; with H2228 Cells (read-out: Combination Compound (1) IC50), 6.39; in the test with H3122 Cells (NCI-H3122, 72 h, H3122 cells, compound (1) as single agent, 72 h, read-out: Compound (1) IC50), 5.89. In addition, the pIC50 with H3122 Cells (NCI-H3122, H3122 cells, compound (1) in combination with Alectinib, read-out: Combination Compound (1) IC50) is 6.62; with H3122 Cells (NCI-H3122, H3122 cells, compound (1) in combination with Crizotinib, read-out: Combination Compound (1) IC50), 6.30; in the test on UACC903 it was 5.47. Also, in test [1], the cytostatic activity entry is reported as “good cytostatic activity”.
